# Measurements published in patent publication US10034462B2, “Animal model of nash-induced hepatocellular carcinoma and methods for developing specific therapeutics” (THE REGENTS OF THE UNIVERSITY OF CALIFORNIA, priority 2015, dated 2018).
# Tested on: WT HcPC-transplanted MUP-uPA mice
# Experiment: Effect of TNF antagonist on HFD-induced acceleration of tumor growth in HcPC-transplanted MUP-uPA mice
# Format: in vivo, mouse
# Details: HFD for 5 months; 5 mg/kg i.p. three times a week during the last 7 weeks, vs vehicle
# Text: FIGS. 13A-13J are pictorial and graphical diagrams showing analyses of HcPC transplanted MUP-uPA mice. […] Data are means±S.D. (n=3 per group). […] FIGS. 13C-13F show no differences in the severity of NASH and TNF expression in the background liver of MUP-uPA mice transplanted with either WT and Tnfr1^−/− HcPC. Body weight (FIG. 13C), serum ALT (FIG. 13D), expression of TNF mRNA in non-tumor tissues (FIG. 13E), liver steatosis (FIG. 13F) and fibrosis (FIG. 13G) in MUP-uPA mice transplanted with either WT or Tnfr1^−/− HcPC and kept on LFD or HFD are shown (scale bar=100 μm). Data are expressed as means±S.D. (n=10-11 per group). *p<0.05. […] 5 mg/kg etanercept or vehicle control was i.p. injected three times a week during the last 7 weeks. Representative images of livers and maximal tumor sizes are shown. Data are expressed as means±S.E.M. (control, n=10; etanercept, n=12). […] HcPC-transplanted Tnfr1^−/−/MUP-uPA mice were divided into two groups that were fed with either LFD or HFD, and 5 months later tumorigenesis was assessed. Representative images of livers and maximal tumor sizes are shown. Data are expressed as means±S.E.M. (n=10 per group).
# DEN (Sigma) was i.p. injected into male mice (25 mg/kg) on postnatal day 14. After 5 months, HcPCs were isolated as described and transplanted into 4 weeks old MUP-uPA (He et al., 2013). […]
substance,measurement,value
Etanercept,HCC growth (maximal tumor size),significantly suppressed
